Laboratory results published in patent publication US20100184807A1, “Methods to inhibit tumor cell growth by using proton pump inhibitors” (Bio-Quant, Inc., priority 2008, published 2010).

How the values were obtained:
Assay in all cases: MTT tumor cell growth assay
Format in all cases: cell-based
A498 (kidney cancer) = settings: A498 cells, lansoprazole 1-100 μM, 48 hours
Protocol: (§1) In one study, adherent cells were plated approximately 16-24 hours before the day of the experiment in 180 μl growth media. On the day of the experiment, the plated adherent cells were analyzed and counted and suspension cells were plated in 180 μl growth media. 10× lansoprazole compounds and vehicle was prepared. The 10× lansoprazole compounds were prepared by diluting lansoprazole to final concentrations of 100 μM, 30 μM, 10 μM, 3 μM, and 1 μM. A vehicle was prepared by preparing a solution of PBS, equivalent to the volume used for 10 μM lansoprazole wherein the 1× solution constitutes ˜0.06% PBS. 10 μl of the various 10× lansoprazole solutions and the vehicle were added to the cells. The cells were incubated at 37° C., 5% CO2 for 48 hours. The media was then aspirated. The cell suspension was then spun at 1500 RPM for 10 minutes. The media was slowly removed. 200 μl of MTT solution was added to each well with a concentration of 0.863 mg/ml MTT in the growth media. The cells were incubated at 37° C., 5% CO2 for 4 hours and the medium is then aspirated. The plate containing the cell suspension was then spun at 1500 RPM for 10 minutes. The media was slowly removed using a multichannel pipettor. 100 μl of DMSO was then added to each well. The cells were incubated at 37° C., 5% CO2 for 5 minutes and the absorbance was obtained at 560 nm using a Dynex Opsys MR plate reader. The cells used for this procedure were the following cell lines: IGROV1 (ovarian cancer); OVCAR 8 (ovarian cancer); ES-2 (ovarian cancer); CAOV3 (ovarian cancer); OVCAR5 (ovarian cancer); SUDHL4 (lymphoma); RPMI8226 (myeloma); RPMI6666 (Hodgkin's lymphoma); NC37 (lymphoma); GDM-1 (leukemia); MC/CAR (prostate cancer); DU-145 (prostate cancer), J45-01 (leukemia), MOLT3 (leukemia), HUT78, J-gamma-1 (leukemia), MCF7 […], COL0205 (colon cancer), HL60 CLONE 15 (leukemia), T47D (breast cancer), P116 (intestinal cancer), KU812 (leukemia), SW620 (colon cancer), MK92-M1 (lymphoma), MV-4-11 (leukemia), HS578T (breast cancer), HT29 (colon cancer), HCT 116 (colon cancer), CAKI-1 (kidney cancer), A549 (lung cancer), H460 (lung cancer), A3 (colon cancer), MDA-MB231 […], MALME 3M (melanoma), RXF393 (kidney cancer), RS4.11 (leukemia), PC3 (prostate cancer), OVCAR3 (ovarian cancer), MDA-MB435 (melanoma), HUT102 (lymphoma), HL60 (leukemia), CCRF-CEM (leukemia), HUT78 (lymphoma), 786-O (kidney cancer), ACHN (kidney cancer), A498 (kidney cancer), H226 (lung cancer), H522 (lung cancer), HOP92 (lung cancer), SNB 19 (brain cancer), OVCAR4 (ovarian cancer), H9 (lymphoma), UO-31 (kidney cancer), HH (lymphoma), DAUDI (leukemia), LOXIMVI (melanoma), NAMALWA (lymphoma), EKVX (lung cancer), DOHH2 (lymphoma), SNB75 (brain cancer), SKMEL28 (melanoma), SKMEL5 (melanoma), SKMEL2 (melanoma), M14 (melanoma), UACC 257 (melanoma), H332M (lung cancer), KM12 (colon cancer), HCC2998 (colon cancer), G401 (kidney cancer), RS1184 (lymphoma), MC116 (leukemia), MOLT4 (leukemia), JM1 (liver cancer), HOP-62 (lung cancer), HCT-15 (colon cancer), SF-539 (brain cancer), SF295 (brain cancer), ST486 (lymphoma), U251 (brain cancer), and UACC-62 (melanoma).

DOHH2 (lymphoma) = settings: DOHH2 cells, lansoprazole 1-100 μM, 48 hours
Protocol: as §1

ES-2 (ovarian cancer) = settings: ES-2 cells, lansoprazole 1-100 μM, 48 hours
Protocol: as §1

H9 (lymphoma) = settings: H9 cells, lansoprazole 1-100 μM, 48 hours
Protocol: as §1

HCT-15 (colon cancer) = settings: HCT-15 cells, lansoprazole 1-100 μM, 48 hours
Protocol: as §1

IGROV 1 (ovarian cancer) = settings: IGROV 1 cells, lansoprazole 1-100 μM, 48 hours
Protocol: as §1

J-gamma-1 (leukemia) = settings: J-gamma-1 cells, lansoprazole 1-100 μM, 48 hours
Protocol: as §1

M14 (melanoma) = settings: M14 cells, lansoprazole 1-100 μM, 48 hours
Protocol: as §1

MOLT4 (leukemia) = settings: MOLT4 cells, lansoprazole 1-100 μM, 48 hours
Protocol: as §1

MV-4-11 (leukemia) = settings: MV-4-11 cells, lansoprazole 1-100 μM, 48 hours
Protocol: as §1

NAMALWA (lymphoma) = settings: NAMALWA cells, lansoprazole 1-100 μM, 48 hours
Protocol: as §1

OVCAR4 (ovarian cancer) = settings: OVCAR4 cells, lansoprazole 1-100 μM, 48 hours
Protocol: as §1

PC3 (prostate cancer) = settings: PC3 cells, lansoprazole 1-100 μM, 48 hours
Protocol: as §1

RXF393 (kidney cancer) = settings: RXF393 cells, lansoprazole 1-100 μM, 48 hours
Protocol: as §1

SKMEL2 (melanoma) = settings: SKMEL2 cells, lansoprazole 1-100 μM, 48 hours
Protocol: as §1

ST486 (lymphoma) = settings: ST486 cells, lansoprazole 1-100 μM, 48 hours
Protocol: as §1

SW620 (colon cancer) = settings: SW620 cells, lansoprazole 1-100 μM, 48 hours
Protocol: as §1

UACC-62 (melanoma) = settings: UACC-62 cells, lansoprazole 1-100 μM, 48 hours
Protocol: as §1

Measured: tumor cell growth reduction

Cc1c(OCC(F)(F)F)ccnc1C[S+]([O-])c1nc2ccccc2[nH]1 (stereo not drawn) [lansoprazole]
significant tumor cell growth reduction: A498 (kidney cancer) | DOHH2 (lymphoma) | ES-2 (ovarian cancer) | H9 (lymphoma) | HCT-15 (colon cancer) | IGROV 1 (ovarian cancer) | J-gamma-1 (leukemia) | M14 (melanoma) | MOLT4 (leukemia) | MV-4-11 (leukemia) | NAMALWA (lymphoma) | OVCAR4 (ovarian cancer) | PC3 (prostate cancer) | RXF393 (kidney cancer) | SKMEL2 (melanoma) | ST486 (lymphoma) | SW620 (colon cancer) | UACC-62 (melanoma)
